# Results: patent publication US20200375919A1, “BONE GRAFT MATERIAL WITH 4-HEXYLRESORCINOL THAT AFFECTS BONE FORMATION” (MANTIZ LOGITECH CO., LTD., priority 2019, published 2020)
# What was measured:
# human primary cells = assay: MTS measuring of cytotoxicity and cell viability; format: cell-based; conditions: FIG. 1
# Description: MTS Measuring Method of Cytotoxicity and Cell Viability
# Mitochondrial NADH-dehydrogenase forms formazan having a color by reducing a tetrazolium salt such as MTS. Therefore, as the number of cells which express dehydrogenase, i.e., living cells is proportional to formation of formazan, the living cells can be quantified.
# After seeding human primary cells, adhering the seeded-human primary cells to a cell plate, and treating the seeded-human primary cells adhered to the cell plate with an MTS Cell Proliferation Assay Kit (ab197010, UK, abcam) every 24 hours and 48 hours, resulting materials were confirmed by using a wavelength of 490 nm.
# osteoblast-like cells [1] = assay: Alkaline phosphatase activity (early-stage osteoblastic differentiation); format: cell-based, human; conditions: 0.0194% (=10^-4M) compared with 3% and control; seventh day; FIG. 2
# Method: Method of Measuring Cell Culture and Alkaline Phosphatase Activities
# (§1) In vitro tests were performed by using osteoblast-like cells through a human primary cell culture. A cell survival environment was progressed by supplementing DMEM (Dulbecco Modified Eagle's Medium)-high glucose (PAA Laboratories, Pasching, Austria) and 20% fetal bovine serum (PAA, Canada) and comprising 1% penicillin/streptomycin (100×), and media were exchanged every other day. Resulting materials were confirmed on the seventh day of differentiation experiments by using alkaline phosphatase (Sigma, St. Louis, Mo., USA).
# osteoblast-like cells [2] = assay: Alizarin Red S staining (late osteoblast differentiation, calcium accumulation); format: cell-based, human; conditions: 0.0194% (=10^-4M) compared with 3% and control; FIG. 3
# Method: Method of Measuring Bone Differentiation Degrees by Dyeing Calcium Accumulation of Bone-Differentiated Cells (Alizarin Red S Staining)
# as §1, with “experiments.” for “experiments by using alkaline phosphatase (Sigma, St. Louis, Mo., USA).”
# ALP, Runx2, Osx, Ocn = assay: mRNA expression of osteoblast differentiation markers; format: cell-based; conditions: 0.0194% (=10^-4M) compared with 3% or control; FIGS. 4A to 4D
# ALP and Runx2 = assay: Western blot protein level; format: cell-based; conditions: 0.0194% compared with 3% or control; FIG. 5
# osteoclasts = assay: Differentiation of osteoclasts (TRAP staining); format: cell-based, human; conditions: FIGS. 6A and 6B
# Method: Method of Measuring Differentiation Abilities of Osteoclasts (TRAP Staining)
# as §1, with “osteoclasts” for “osteoblast-like cells”, “bone marrow derived macrophages” for “primary cell”, “once a” for “every other”, “fifth” for “seventh”, “through TRAP staining.” for “by using alkaline phosphatase (Sigma, St. Louis, Mo., USA).”
compound,measurement,setting,value
CCCCCCc1ccc(O)cc1O [4-hexylresorcinol],"cell proliferation, low versus high concentration",human primary cells; 0.0194% compared with 3%,cell proliferation is more active
same,cell viabilities versus control,human primary cells; 4-hexylresorcinol concentrations of 3% and 0.0194% (=10^-4M),higher than a control
same,ALP activity,osteoblast-like cells [1],high ALP activity
same,calcification (Alizarin Red S staining),osteoblast-like cells [2],high calcification
same,"mRNA expression level of ALP, Runx2, Osx, Ocn","ALP, Runx2, Osx, Ocn",larger expression level
same,ALP and Runx2 protein expression levels (western blot),ALP and Runx2,higher
same,"effect on differentiation of osteoclasts, low versus high concentration",osteoclasts; 0.0194% compared with 3%,more excellent
same,differentiation of osteoclasts,"osteoclasts; treating 4-hexylresorcinol, fifth day",inhibited
